Data published in ChEMBL document CHEMBL3098024, “Synthesis, molecular modeling and biological evaluation of N-benzylidene-2-((5-(pyridin-4-yl)-1,3,4-oxadiazol-2-yl)thio)acetohydrazide derivatives as potential anticancer agents” (Bioorg Med Chem, 2014).

What was measured:
[1] = system: HepG2; assay: Cytotoxicity against human HepG2 cells after 48 hrs by MTT assay; format: functional, cell-based; settings: HepG2, 48 h
[2] = system: MCF7; assay: Cytotoxicity against human MCF7 cells after 48 hrs by MTT assay; format: functional, cell-based; settings: MCF7, 48 h
[3] = Cytotoxicity against human BGC823 cells after 48 hrs by MTT assay; format: functional, cell-based; settings: BGC-823, 48 h
[4] = Inhibition of telomerase in human SW1116 cells after 24 hrs by TRAP-PCR-ELISA assay; format: cell-based; settings: sw 1116
[5] = system: NIH3T3; assay: Cytotoxicity against mouse NIH/3T3 cells after 24 hrs by MTT assay; format: ADME, cell-based; settings: NIH3T3, 24 h
[6] = Cytotoxicity against human SW1116 cells after 48 hrs by MTT assay; format: functional, cell-based; settings: SW 1116, 48 h

Row | Structure (SMILES) | IC50 [1] [µM] | IC50 [2] [µM] | IC50 [3] [µM] | IC50 [4] [µM] | pIC50 [4] | IC50 [5] [µM] | IC50 [6] [µM]
1 | O=C(CSc1nnc(-c2ccncc2)o1)N/N=C/c1ccccc1 | 17.3 | 14.6 | 22.1 | 9.72 | 5.01 | 167 | 16.7
2 | O=C(CSc1nnc(-c2ccncc2)o1)N/N=C/c1ccc(F)cc1 | 12.3 | 13.5 | 17.8 | 10.2 | 4.99 | 170 | 15.7
3 | O=C(CSc1nnc(-c2ccncc2)o1)N/N=C/c1ccc(O)c(O)c1 | 0.76 | 0.91 | 1.26 | 1.18 | 5.93 | 154 | 1.54
4 | NNC(=O)CSc1nnc(-c2ccncc2)o1 | 3.26 | 3.26 | 3.26 |  |  |  | 3.26
5 | O=C(CSc1nnc(-c2ccncc2)o1)N/N=C/c1cccc(C(F)(F)F)c1 | 6.52 | 14.6 | 13 | 5.18 | 5.29 | 169 | 14.9
6 | O=C(CSc1nnc(-c2ccncc2)o1)N/N=C/c1cccs1 | 14.9 | 23.5 | 26.7 | 13.5 | 4.87 | 189 | 24.9
7 | O=C(CSc1nnc(-c2ccncc2)o1)N/N=C/c1ccc([N+](=O)[O-])cc1 | 17.9 | 31.8 | 31.5 | 16.7 | 4.78 | 195 | 25.8
8 | O=C(CSc1nnc(-c2ccncc2)o1)N/N=C/C=C/c1ccccc1 | 7.42 | 10.8 | 10.6 | 6.57 | 5.18 | 160 | 14.9
9 | CC[n+]1c(-c2ccccc2)c2cc(N)ccc2c2ccc(N)cc21 [HOMIDIUM BROMIDE] |  |  |  | 2.71 |  | 135 | 
10 | O=C(CSc1nnc(-c2ccncc2)o1)N/N=C/c1ccccc1[N+](=O)[O-] | 24.7 | 35.6 | 41.6 | 18.2 | 4.74 | 214 | 30.7
11 | O=C(CSc1nnc(-c2ccncc2)o1)N/N=C/c1ccc(O)cc1 | 5.51 | 11.7 | 7.94 | 5.36 | 5.27 | 158 | 12.2
12 | O=C(CSc1nnc(-c2ccncc2)o1)N/N=C/c1ccco1 | 12.5 | 16.6 | 25.8 | 9.63 | 5.02 | 175 | 18.8
13 | Cc1ccc(/C=N/NC(=O)CSc2nnc(-c3ccncc3)o2)cc1 | 10 | 14.7 | 21.8 | 8.51 | 5.07 | 185 | 16.8
14 | O=C(CSc1nnc(-c2ccncc2)o1)N/N=C/c1ccc(Cl)cc1 | 15.7 | 15.3 | 20.5 | 11.9 | 4.93 | 181 | 17
15 | O=C(CSc1nnc(-c2ccncc2)o1)N/N=C/c1ccc(Cl)cc1Cl | 18.6 | 27.9 | 35.6 | 17.8 | 4.75 | 221 | 28.9
16 | COc1cc(/C=N/NC(=O)CSc2nnc(-c3ccncc3)o2)ccc1O | 2.92 | 3.78 | 4.32 | 2.89 | 5.54 | 148 | 3.59
17 | O=C(CSc1nnc(-c2ccncc2)o1)N/N=C/c1cc(Br)ccc1O | 6.49 | 7.77 | 9.59 | 4.28 | 5.37 | 156 | 8.15
18 | COc1ccc(/C=N/NC(=O)CSc2nnc(-c3ccncc3)o2)cc1 | 15.8 | 17.6 | 19.8 | 9.04 | 5.04 | 132 | 20.3
19 | O=C(CSc1nnc(-c2ccncc2)o1)N/N=C/c1cc(Cl)ccc1O | 3.97 | 5.83 | 5.47 | 3.13 | 5.5 | 166 | 5.24
20 | O=C(CSc1nnc(-c2ccncc2)o1)N/N=C/c1cccc(F)c1 | 19.4 | 24.9 | 27.5 | 15.7 | 4.8 | 205 | 26.7
21 | O=C(CSc1nnc(-c2ccncc2)o1)N/N=C/c1ccccc1O | 3.51 | 4.75 | 6.16 | 3.97 | 5.4 | 155 | 7.38
22 | O=C(CSc1nnc(-c2ccncc2)o1)N/N=C/c1cc(Cl)cc(Cl)c1O | 3.26 | 5.92 | 6.34 | 4.8 | 5.32 | 171 | 5.03
23 | O=c1[nH]cc(F)c(=O)[nH]1 [FLUOROURACIL] | 7.43 | 9.79 | 7.48 |  |  |  | 5.26
24 | O=C(CSc1nnc(-c2ccncc2)o1)N/N=C/c1cc(Br)cc(Br)c1O | 6.54 | 9.01 | 9.61 | 7.12 | 5.15 | 190 | 8.57
25 | O=C(CSc1nnc(-c2ccncc2)o1)N/N=C/c1ccc(Br)cc1 | 18.6 | 19.1 | 24.5 | 12.4 | 4.91 | 169 | 21.3
26 | O=C(CSc1nnc(-c2ccncc2)o1)N/N=C/c1ccccc1F | 16 | 21.8 | 24 | 14.6 | 4.84 | 142 | 21.5
27 | COc1cccc(/C=N/NC(=O)CSc2nnc(-c3ccncc3)o2)c1 | 9.17 | 13.8 | 15.8 | 7.54 | 5.12 | 179 | 16.5
